Measurements reported in ChEMBL document CHEMBL5465560, “Selectivity Literature for EUbOPEN Chemogenomic Library” (2024).

Assays:
[1] = target: 5-hydroxytryptamine receptor 5A (Homo sapiens) (UniProt P47898); test: Selectivity interaction (GPCR panel (PDSP screen)) EUB0001079a HTR5A; details: at 10 µM
[2] = target: T1, Interleukin-1 receptor-associated kinase 3 (Homo sapiens) (UniProt Q9Y616); test: Selectivity interaction (KinomeScan (DiscoverX)) EUB0000666a IRAK3; details: at 10 µM
T1 sequence (whole entry): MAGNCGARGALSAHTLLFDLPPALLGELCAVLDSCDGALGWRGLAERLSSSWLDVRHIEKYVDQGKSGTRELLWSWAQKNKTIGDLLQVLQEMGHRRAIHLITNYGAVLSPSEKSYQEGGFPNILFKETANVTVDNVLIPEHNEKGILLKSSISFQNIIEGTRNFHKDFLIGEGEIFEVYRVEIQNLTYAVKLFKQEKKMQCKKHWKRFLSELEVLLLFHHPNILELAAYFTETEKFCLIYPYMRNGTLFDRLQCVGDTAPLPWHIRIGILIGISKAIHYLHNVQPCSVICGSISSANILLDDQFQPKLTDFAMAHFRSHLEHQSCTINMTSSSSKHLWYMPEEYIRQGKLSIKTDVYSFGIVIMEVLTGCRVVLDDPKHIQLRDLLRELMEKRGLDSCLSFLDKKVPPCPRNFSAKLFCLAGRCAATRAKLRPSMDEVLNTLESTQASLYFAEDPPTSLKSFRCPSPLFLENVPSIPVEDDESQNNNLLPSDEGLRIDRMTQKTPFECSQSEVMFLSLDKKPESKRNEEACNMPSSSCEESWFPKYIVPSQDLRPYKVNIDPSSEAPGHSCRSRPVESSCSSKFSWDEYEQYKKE

[3] = target: T2, Muscarinic acetylcholine receptor M1 (Homo sapiens) (UniProt P11229); test: Selectivity interaction (Panel of kinases, GPCRs, ion channels and transporters (enzymatic assay)) EUB0000223bCl CHRM1
T2 sequence (whole entry): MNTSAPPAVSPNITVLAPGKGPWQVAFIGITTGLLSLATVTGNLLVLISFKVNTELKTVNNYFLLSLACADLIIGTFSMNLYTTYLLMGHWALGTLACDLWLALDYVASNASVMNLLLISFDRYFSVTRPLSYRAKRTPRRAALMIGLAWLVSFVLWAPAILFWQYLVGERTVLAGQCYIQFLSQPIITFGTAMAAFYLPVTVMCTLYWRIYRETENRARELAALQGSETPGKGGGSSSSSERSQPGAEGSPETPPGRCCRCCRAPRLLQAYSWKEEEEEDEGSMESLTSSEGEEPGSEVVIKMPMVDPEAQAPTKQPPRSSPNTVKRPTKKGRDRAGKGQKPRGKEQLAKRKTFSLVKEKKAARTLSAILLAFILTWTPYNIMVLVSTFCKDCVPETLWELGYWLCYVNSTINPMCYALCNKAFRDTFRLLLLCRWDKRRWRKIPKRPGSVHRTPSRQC

[4] = target: T3, Serine/threonine-protein kinase ULK3 (Homo sapiens) (UniProt Q6PHR2); test: Selectivity interaction (KinomeScan (DiscoverX)) EUB0001049a ULK3; details: at 1 µM
T3 sequence (whole entry): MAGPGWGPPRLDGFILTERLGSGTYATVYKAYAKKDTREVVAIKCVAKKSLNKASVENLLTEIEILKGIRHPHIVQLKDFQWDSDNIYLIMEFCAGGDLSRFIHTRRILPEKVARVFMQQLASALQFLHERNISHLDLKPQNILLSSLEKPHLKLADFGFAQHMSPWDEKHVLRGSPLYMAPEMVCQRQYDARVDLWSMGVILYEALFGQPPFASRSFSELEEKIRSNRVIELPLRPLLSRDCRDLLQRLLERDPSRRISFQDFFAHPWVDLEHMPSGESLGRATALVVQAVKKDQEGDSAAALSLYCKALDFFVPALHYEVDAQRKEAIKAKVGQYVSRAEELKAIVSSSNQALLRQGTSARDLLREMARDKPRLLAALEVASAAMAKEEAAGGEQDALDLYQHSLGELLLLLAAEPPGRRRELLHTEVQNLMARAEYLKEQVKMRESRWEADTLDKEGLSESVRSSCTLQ

[5] = target: Histone-lysine N-methyltransferase SUV39H2 (Homo sapiens) (UniProt Q9H5I1); test: Selectivity interaction (Methyltransferase screen (radiometric assays, panel of 8 PRMTs, 21 protein lysine methyltransferases, 3 DNA methyltransferases, and one RNA methyltransferase)) EUB0000271b SUV39H2
Sequence of Histone-lysine N-methyltransferase SUV39H2 (Homo sapiens) (Q9H5I1 whole entry): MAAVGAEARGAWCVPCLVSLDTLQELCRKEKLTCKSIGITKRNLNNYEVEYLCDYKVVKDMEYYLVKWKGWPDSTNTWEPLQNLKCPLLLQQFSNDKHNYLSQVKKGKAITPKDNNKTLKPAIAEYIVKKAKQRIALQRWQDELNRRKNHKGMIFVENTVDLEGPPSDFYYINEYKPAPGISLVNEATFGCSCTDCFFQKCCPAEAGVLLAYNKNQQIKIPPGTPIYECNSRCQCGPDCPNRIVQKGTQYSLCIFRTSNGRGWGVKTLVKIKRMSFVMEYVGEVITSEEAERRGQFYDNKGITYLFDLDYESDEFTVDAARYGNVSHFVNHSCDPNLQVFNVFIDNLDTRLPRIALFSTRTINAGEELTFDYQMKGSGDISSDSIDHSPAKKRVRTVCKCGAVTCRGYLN

[6] = target: T4, Tyrosine-protein kinase Mer (Homo sapiens) (UniProt Q12866); test: Selectivity interaction (Ambit KINOMEscan and KiNATiv profiling in Jurkat cells) EUB0000090b MERTK; assay type: cell-based; details: at 1 µM
T4 sequence (whole entry): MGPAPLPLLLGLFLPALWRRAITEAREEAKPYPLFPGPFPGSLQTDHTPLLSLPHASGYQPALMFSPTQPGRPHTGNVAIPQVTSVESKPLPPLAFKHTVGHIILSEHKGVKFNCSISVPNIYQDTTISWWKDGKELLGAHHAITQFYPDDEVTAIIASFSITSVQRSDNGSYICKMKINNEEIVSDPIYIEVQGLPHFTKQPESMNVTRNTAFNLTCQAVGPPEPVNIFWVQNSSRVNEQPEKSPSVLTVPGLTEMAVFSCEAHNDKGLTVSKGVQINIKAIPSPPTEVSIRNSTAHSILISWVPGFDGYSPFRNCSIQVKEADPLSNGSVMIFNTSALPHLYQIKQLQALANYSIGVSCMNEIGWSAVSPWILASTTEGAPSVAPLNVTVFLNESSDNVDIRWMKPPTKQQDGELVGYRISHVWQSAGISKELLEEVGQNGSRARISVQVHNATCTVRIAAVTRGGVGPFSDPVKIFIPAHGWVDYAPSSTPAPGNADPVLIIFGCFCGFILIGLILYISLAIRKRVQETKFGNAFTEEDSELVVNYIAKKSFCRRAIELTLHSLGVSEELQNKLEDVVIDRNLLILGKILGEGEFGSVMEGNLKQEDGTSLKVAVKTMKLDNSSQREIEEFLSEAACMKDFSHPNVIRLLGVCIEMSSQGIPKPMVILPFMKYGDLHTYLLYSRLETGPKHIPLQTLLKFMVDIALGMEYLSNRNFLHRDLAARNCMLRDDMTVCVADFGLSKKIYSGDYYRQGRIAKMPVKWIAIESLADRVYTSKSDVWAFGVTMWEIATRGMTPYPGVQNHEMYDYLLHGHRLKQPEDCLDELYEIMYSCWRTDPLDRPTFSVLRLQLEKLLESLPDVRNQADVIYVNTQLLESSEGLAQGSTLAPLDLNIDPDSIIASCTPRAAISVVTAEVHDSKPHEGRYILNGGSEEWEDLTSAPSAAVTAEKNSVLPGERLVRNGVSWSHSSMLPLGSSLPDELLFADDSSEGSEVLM

[7] = target: Tyrosine-protein kinase SYK (Homo sapiens, UniProt P43405); test: Selectivity interaction (ActivX KiNativ screen (ex vivo kinase selectivity in human PBMCs)) EUB0001619a SYK; assay type: cell-based; details: PBMC, at 1 µM

Sequence of 5-hydroxytryptamine receptor 5A (Homo sapiens) (P47898 whole entry): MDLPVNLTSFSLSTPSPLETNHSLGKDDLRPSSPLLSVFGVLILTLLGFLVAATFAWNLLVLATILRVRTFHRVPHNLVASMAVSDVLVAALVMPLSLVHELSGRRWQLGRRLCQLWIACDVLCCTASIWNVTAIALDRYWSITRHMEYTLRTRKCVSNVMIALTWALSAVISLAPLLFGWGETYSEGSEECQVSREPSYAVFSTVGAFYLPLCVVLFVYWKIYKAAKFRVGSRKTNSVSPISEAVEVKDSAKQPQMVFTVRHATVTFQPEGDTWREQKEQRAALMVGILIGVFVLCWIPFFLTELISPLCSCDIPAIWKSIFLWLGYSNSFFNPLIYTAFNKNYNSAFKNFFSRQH

Compound: Nc1cnc(N2CCc3cc(S(=O)(=O)Nc4c(F)cc(Cl)cc4F)cc(N4CCCC4=O)c32)nc1 [TP-020n]
- % of inhibition [1]: -4.87%

Compound: O=C(NOC[C@H](O)CO)c1ccc(F)c(F)c1Nc1ccc(I)cc1F
- % of control [2]: 100%

Compound: COc1cc(C(=O)N2CC[C@@H](O)[C@@H](N)C2)cc2nc(-c3cc4ccccc4n3CC3CC3)n(C)c12
- pXC50 [3]: 5.3 M

Compound: COc1cc(Nc2nc(C)cc(-c3cnn4nc(OC)ccc34)n2)cc(C(F)(F)F)c1
- % of control [4]: 79%

Compound: Cc1cc(C)cc([C@@H]2c3cc(C)ccc3NC(=O)CN2C(=O)c2ccc(Br)s2)c1
- % of activity ([5]; at 1 µM): 99.3%
- % of activity ([5]; at 10 µM): 98.3%

Compound: CN(C)C/C=C/C(=O)Nc1ccc(C(=O)N2CCCC(Nc3ncc(Cl)c(-c4c[nH]c5ccccc45)n3)C2)cc1 (stereo not drawn)
- % of control [6]: 61%

Compound: N#Cc1cccc(-c2c[nH]c3ncnc(N4CCOCC4)c23)c1
- % of inhibition [7]: 0%
